# Test results reported in PubChem BioAssay AID1963980 (Molecular Pharmacology Branch, DTP, NCI, 2024).
# Tested on: 475296-252-R-J1-PDC spheroid viability
# Assay: Anticancer human tumor 475296-252-R-J1-PDC patient-derived rectal carcinoma cell line growth inhibition [PI3K]
# Conditions: spheroids with HUVEC and MSC; for IC50: curve of first compound; for viability, T/C: stronger effect = lower value
# Procedure, shortened: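 High-throughput combination screen: PI3K inhibitors crossed with targeted small molecules on complex spheroids of tumor cells, HUVEC and MSCs at 37 degrees C, 5% CO2. Top concentration was at or near clinical Cmax (otherwise 10 microM), with half-log decrements.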
# [1] = second compound 0.00316 µM, first compound 0.0316 µM
# [2] = second compound 0.00316 µM, first compound 0.1 µM
# [3] = second compound 0.00316 µM, first compound 0.316 µM
# [4] = second compound 0.00316 µM, first compound 1 µM
# [5] = second compound 0.00316 µM, first compound 3.16 µM
# [6] = second compound 0.00316 µM, first compound 10 µM
# [7] = second compound 0.01 µM, first compound 0.0316 µM
# [8] = second compound 0.01 µM, first compound 0.1 µM
# [9] = second compound 0.01 µM, first compound 0.316 µM
# [10] = second compound 0.01 µM, first compound 1 µM
# [11] = second compound 0.01 µM, first compound 3.16 µM
# [12] = second compound 0.01 µM, first compound 10 µM
# [13] = second compound 0.0316 µM, first compound 0.0316 µM
# [14] = second compound 0.0316 µM, first compound 0.1 µM
# [15] = second compound 0.0316 µM, first compound 0.316 µM
# [16] = second compound 0.0316 µM, first compound 1 µM
# [17] = second compound 0.0316 µM, first compound 3.16 µM
# [18] = second compound 0.0316 µM, first compound 10 µM
# [19] = second compound 0.1 µM, first compound 0.0316 µM
# [20] = second compound 0.1 µM, first compound 0.1 µM
# [21] = second compound 0.1 µM, first compound 0.316 µM
# [22] = second compound 0.1 µM, first compound 1 µM
# [23] = second compound 0.1 µM, first compound 3.16 µM
# [24] = second compound 0.1 µM, first compound 10 µM
# [25] = second compound 0.316 µM, first compound 0.0316 µM
# [26] = second compound 0.316 µM, first compound 0.1 µM
# [27] = second compound 0.316 µM, first compound 0.316 µM
# [28] = second compound 0.316 µM, first compound 1 µM
# [29] = second compound 0.316 µM, first compound 3.16 µM
# [30] = second compound 0.316 µM, first compound 10 µM
# [31] = second compound 1 µM, first compound 0.0316 µM
# [32] = second compound 1 µM, first compound 0.1 µM
# [33] = second compound 1 µM, first compound 0.316 µM
# [34] = second compound 1 µM, first compound 1 µM
# [35] = second compound 1 µM, first compound 3.16 µM
# [36] = second compound 1 µM, first compound 10 µM
# 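Also: spheroids exposed to agents for seven days before readout.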
compound,measurement,setting,value
C=CC(=O)N1CCN(c2nc(=O)n(-c3c(C)ccnc3C(C)C)c3nc(-c4c(O)cccc4F)c(F)cc23)C(C)C1 (stereo not drawn) + CC(Nc1ccc2c(c1)OCCn1cc(N3C(=O)OCC3C(F)F)nc1-2)C(N)=O,IC50,second compound 0.00316 µM,> 10 µM
same,IC50,second compound 0.01 µM,> 10 µM
same,IC50,second compound 0.0316 µM,> 10 µM
same,IC50,second compound 0.1 µM,> 10 µM
same,IC50,second compound 0.316 µM,> 10 µM
same,IC50,second compound 1 µM,> 10 µM
same,"viability, T/C",[1],83.8%
same,"viability, T/C",[2],89.9%
same,"viability, T/C",[3],89.4%
same,"viability, T/C",[4],92.5%
same,"viability, T/C",[5],102%
same,"viability, T/C",[6],110%
same,"viability, T/C",[7],90.2%
same,"viability, T/C",[8],84.9%
same,"viability, T/C",[9],101%
same,"viability, T/C",[10],102%
same,"viability, T/C",[11],102%
same,"viability, T/C",[12],97.8%
same,"viability, T/C",[13],88.3%
same,"viability, T/C",[14],97.2%
same,"viability, T/C",[15],91.2%
same,"viability, T/C",[16],90.2%
same,"viability, T/C",[17],99%
same,"viability, T/C",[18],96.3%
same,"viability, T/C",[19],83.7%
same,"viability, T/C",[20],92.2%
same,"viability, T/C",[21],96.5%
same,"viability, T/C",[22],103%
same,"viability, T/C",[23],94%
same,"viability, T/C",[24],98.6%
same,"viability, T/C",[25],77.5%
same,"viability, T/C",[26],90.8%
same,"viability, T/C",[27],88%
same,"viability, T/C",[28],86.9%
same,"viability, T/C",[29],83.4%
same,"viability, T/C",[30],86.2%
same,"viability, T/C",[31],82.7%
same,"viability, T/C",[32],79%
same,"viability, T/C",[33],87.5%
same,"viability, T/C",[34],83.5%
same,"viability, T/C",[35],86.6%
same,"viability, T/C",[36],81.3%
CCN1CCN(Cc2ccc(Nc3ncc(F)c(-c4cc(F)c5nc(C)n(C(C)C)c5c4)n3)nc2)CC1 + CC(Nc1ccc2c(c1)OCCn1cc(N3C(=O)OCC3C(F)F)nc1-2)C(N)=O,IC50,second compound 0.00316 µM,> 1 µM
same,IC50,second compound 0.01 µM,> 1 µM
same,IC50,second compound 0.0316 µM,> 1 µM
same,IC50,second compound 0.1 µM,> 1 µM
same,IC50,second compound 0.316 µM,> 1 µM
same,IC50,second compound 1 µM,> 1 µM
same,"viability, T/C","second compound 0.00316 µM, first compound 0.00316 µM",97.2%
same,"viability, T/C","second compound 0.00316 µM, first compound 0.01 µM",82.2%
same,"viability, T/C",[1],94%
same,"viability, T/C",[2],86.2%
same,"viability, T/C",[3],101%
same,"viability, T/C",[4],89.3%
same,"viability, T/C","second compound 0.01 µM, first compound 0.00316 µM",94.1%
same,"viability, T/C","second compound 0.01 µM, first compound 0.01 µM",87.8%
same,"viability, T/C",[7],95.6%
same,"viability, T/C",[8],85.1%
same,"viability, T/C",[9],89.5%
same,"viability, T/C",[10],87.9%
same,"viability, T/C","second compound 0.0316 µM, first compound 0.00316 µM",95.3%
same,"viability, T/C","second compound 0.0316 µM, first compound 0.01 µM",92.3%
same,"viability, T/C",[13],86.7%
same,"viability, T/C",[14],99.3%
same,"viability, T/C",[15],87.6%
same,"viability, T/C",[16],81.8%
same,"viability, T/C","second compound 0.1 µM, first compound 0.00316 µM",81.3%
same,"viability, T/C","second compound 0.1 µM, first compound 0.01 µM",111%
same,"viability, T/C",[19],86.6%
same,"viability, T/C",[20],86%
same,"viability, T/C",[21],94.3%
same,"viability, T/C",[22],71.8%
same,"viability, T/C","second compound 0.316 µM, first compound 0.00316 µM",85%
same,"viability, T/C","second compound 0.316 µM, first compound 0.01 µM",96.1%
same,"viability, T/C",[25],90.6%
same,"viability, T/C",[26],86.9%
same,"viability, T/C",[27],85%
same,"viability, T/C",[28],71.2%
same,"viability, T/C","second compound 1 µM, first compound 0.00316 µM",83.3%
same,"viability, T/C","second compound 1 µM, first compound 0.01 µM",75.5%
same,"viability, T/C",[31],80.5%
same,"viability, T/C",[32],76.9%
same,"viability, T/C",[33],79.1%
same,"viability, T/C",[34],64.2%
Cn1ncc(Cl)c1-c1cc(C(=O)NC(CN)Cc2cccc(F)c2)sc1Cl (stereo not drawn) + CC(Nc1ccc2c(c1)OCCn1cc(N3C(=O)OCC3C(F)F)nc1-2)C(N)=O,IC50,second compound 0.00316 µM,> 10 µM
same,IC50,second compound 0.01 µM,> 10 µM
same,IC50,second compound 0.0316 µM,> 10 µM
same,IC50,second compound 0.1 µM,> 10 µM
same,IC50,second compound 0.316 µM,> 10 µM
same,IC50,second compound 1 µM,5.46 µM
same,"viability, T/C",[1],87.7%
same,"viability, T/C",[2],68.7%
same,"viability, T/C",[3],76.2%
same,"viability, T/C",[4],63.4%
same,"viability, T/C",[5],65%
same,"viability, T/C",[6],67.6%
same,"viability, T/C",[7],105%
same,"viability, T/C",[8],78.6%
same,"viability, T/C",[9],74.1%
same,"viability, T/C",[10],73%
same,"viability, T/C",[11],73.8%
same,"viability, T/C",[12],70.5%
same,"viability, T/C",[13],92.6%
same,"viability, T/C",[14],88.1%
same,"viability, T/C",[15],63.7%
same,"viability, T/C",[16],67.4%
same,"viability, T/C",[17],52.8%
same,"viability, T/C",[18],60.5%
same,"viability, T/C",[19],90.7%
same,"viability, T/C",[20],104%
same,"viability, T/C",[21],86.1%
same,"viability, T/C",[22],69.3%
same,"viability, T/C",[23],59.4%
same,"viability, T/C",[24],52.9%
same,"viability, T/C",[25],90.7%
same,"viability, T/C",[26],94.3%
same,"viability, T/C",[27],85.7%
same,"viability, T/C",[28],69.5%
same,"viability, T/C",[29],72.8%
same,"viability, T/C",[30],51.5%
same,"viability, T/C",[31],92.3%
same,"viability, T/C",[32],79%
same,"viability, T/C",[33],84.1%
same,"viability, T/C",[34],76.1%
same,"viability, T/C",[35],62%
same,"viability, T/C",[36],36.6%
Cn1nccc1Nc1nccc(-c2ccn(C(CO)c3ccc(Cl)c(F)c3)c(=O)c2)n1 (stereo not drawn) + CC(Nc1ccc2c(c1)OCCn1cc(N3C(=O)OCC3C(F)F)nc1-2)C(N)=O,IC50,second compound 0.00316 µM,> 10 µM
same,IC50,second compound 0.01 µM,> 10 µM
same,IC50,second compound 0.0316 µM,> 10 µM
same,IC50,second compound 0.1 µM,> 10 µM
same,IC50,second compound 0.316 µM,6.42 µM
same,IC50,second compound 1 µM,3.52 µM
same,"viability, T/C",[1],92.9%
same,"viability, T/C",[2],92.8%
same,"viability, T/C",[3],99.3%
same,"viability, T/C",[4],91.6%
same,"viability, T/C",[5],90.3%
same,"viability, T/C",[6],80.9%
same,"viability, T/C",[7],96.8%
same,"viability, T/C",[8],97.9%
same,"viability, T/C",[9],94.4%
same,"viability, T/C",[10],89.1%
same,"viability, T/C",[11],92.1%
same,"viability, T/C",[12],74%
same,"viability, T/C",[13],101%
same,"viability, T/C",[14],105%
same,"viability, T/C",[15],95.7%
same,"viability, T/C",[16],85.8%
same,"viability, T/C",[17],82.9%
same,"viability, T/C",[18],74.7%
same,"viability, T/C",[19],87.6%
same,"viability, T/C",[20],94.7%
same,"viability, T/C",[21],76.8%
same,"viability, T/C",[22],83.7%
same,"viability, T/C",[23],73.3%
same,"viability, T/C",[24],58.1%
same,"viability, T/C",[25],81.1%
same,"viability, T/C",[26],87.4%
same,"viability, T/C",[27],83.1%
same,"viability, T/C",[28],77.2%
same,"viability, T/C",[29],61.1%
same,"viability, T/C",[30],43.1%
same,"viability, T/C",[31],84.1%
same,"viability, T/C",[32],81%
same,"viability, T/C",[33],87.1%
same,"viability, T/C",[34],67.9%
same,"viability, T/C",[35],53.3%
same,"viability, T/C",[36],31.4%
